Data set [1] has as its system GR-79 EPSP synthase (5-enolpyruvylshikinate-3-phosphate synthase), SEQ ID NO:1. Nature of the data set: EPSP synthase enzyme activity and kinetic parameters (inorganic phosphorus release, PEP + S3P). In kind it is biochemical. The protocol:
(§1) Standard curve of inorganic phosphorus: 10 mM inorganic phosphorus was diluted at 1:10, and 0, 1, 2, 3 . . . 20 μl was taken into 1.5 ml Eppendorf tube and milli-Q purified water was added up to 100 μl with mixing, 0.8 ml MAT solution was added with mixing, and then 100 μl 34% SC solution was quickly added with mixing after 3 min, kept at room temperature for 20 min and then the OD660 value was determined. Repeat the operations three times as above. The standard curve of inorganic phosphorus was achieved using the concentration of inorganic phosphorus as abscissa and the OD660 value as ordinate.
(§2) 1) Enzyme activity test: The crude protein extracted with enzyme was quantified using Coomassie Blue G-250 method (Bradford, 1976). The follow solutions were added into 1.5 ml Eppendorf tube on the ice: 2 μl of 10 mM PEP solution, 2 μl of 10 mM S3P solution, 2 μl of 0.5M HEPES solution, 2 μl of 1 mM (NH4)6MO7O24.4H2O solution and 12 μl of milli-Q purified water with mixing, bathed at 28° C. for 5 min and 1 μl crude enzyme solution was added into each, tube at intervals and timing, 200 μl MAT solution was added after 2 min at 2s intervals again, color development was performed for 3 min, and then 20 μl of 34% SC solution was added at 2s intervals and quickly mixed well, the color was developed for 20 min at room temperature and finally the OD660 value was determined. […]

Data set [2] concerns E. coli ER2799 (EPSP synthase defective) with EPSP synthase gene from Agrobacterium sp. cp4 (CP4-ER). Put plainly: Glyphosate tolerance test, positive control strain CP4-ER. The class given is cell-based. As to conditions: M9 liquid medium, 37° C., 36 h, OD600. On the procedure: CP4-ER strain was a strain with glyphosate resistance obtained by ligating the EPSP synthase gene from Agrobacterium sp. cp4 to the vector pACYC 184 and introducing into EPSP synthase defective E. coli ER2799 strain (NEB Company). It was used as a positive control in the figure.
(§3) The three strains were respectively inoculated into the limited medium M9 with the glyphosate concentration of 0, 20, 50, 80, 100, 120, 150, 200, 250, 300 mM, shaking cultured at 37° C. for 36 h, the absorbance values were determined at OD600 and the figure was plotted with the values.
(§4) E. coli ER2799 (containing new cloned pACYCGR-79 plasmid) was inoculated into M9 liquid medium (Cm^r) with 0-200 mm glyphosate, shaking cultured at 37° C. for 36 h, and the OD600 value of culture was determined. E. coli ER2799 with plasmid without insert was used as negative control.

The test system of data set [3] is transgenic tobacco with GR-79 EPSP synthase gene. Put plainly: Glyphosate resistance gradient assay of transgenic tobacco. In kind it is in vivo. As to conditions: greenhouse. The text has this:
The plant expression vector of EPSP synthase gene with high glyphosate resistance was constructed and transgenic tobaccos were constructed by transformation using leaf disc cocultivation.
(8) The plants were removed when the root systems were large, the solid medium attached was washed off with sterile water, and the plants were transferred into the soil, covered with a glass cover for several days at the beginning days, and the cover was removed after the plants were robust, and then the plants were transferred to the solid medium with 10 mM glyphosate to screen the plant strains with glyphosate resistance;

The subject of data set [4] is E. coli ER2799 (EPSP synthase defective) carrying pACYCGR-79 (GR-79-ER). Nature of the data set: Glyphosate tolerance test, strain GR-79-ER. The class given is cell-based. As to conditions: M9 liquid medium, 37° C., 36 h, OD600. On the procedure:
FIG. 1 is a graph of analysis of glyphosate resistance of clone GR-79, wherein: GR-79-ER strain was a strain with glyphosate resistance obtained by cutting the total DNA of soil with enzyme partly, ligating the vector pACYC 184 and introducing into EPSP synthase defective E. coli ER2799 strain (NEB Company).
as §3, §4

The target in a further data set is GR-79 EPSP (uncultured soil bacterium (soil metagenome), UniProt A5Y5A5). Put plainly: Enzyme activity test of EPSP synthase (inorganic phosphorus release). In kind it is biochemical. The settings on record: crude enzyme, PEP and S3P substrates, 28° C., OD660. On the procedure:
as §1, §2

Consider three molecules from US8207403B2, “EPSP synthase with high glyphosate resistance and its encoded sequence” (Biotechnology Research Institute The Chinese Academy of …, priority 2007, dated 2012).

The term Km denotes the substrate concentration at which the rate is half of its maximum.

GR-79 EPSP, sequence (A5Y5A5 entry or part of it): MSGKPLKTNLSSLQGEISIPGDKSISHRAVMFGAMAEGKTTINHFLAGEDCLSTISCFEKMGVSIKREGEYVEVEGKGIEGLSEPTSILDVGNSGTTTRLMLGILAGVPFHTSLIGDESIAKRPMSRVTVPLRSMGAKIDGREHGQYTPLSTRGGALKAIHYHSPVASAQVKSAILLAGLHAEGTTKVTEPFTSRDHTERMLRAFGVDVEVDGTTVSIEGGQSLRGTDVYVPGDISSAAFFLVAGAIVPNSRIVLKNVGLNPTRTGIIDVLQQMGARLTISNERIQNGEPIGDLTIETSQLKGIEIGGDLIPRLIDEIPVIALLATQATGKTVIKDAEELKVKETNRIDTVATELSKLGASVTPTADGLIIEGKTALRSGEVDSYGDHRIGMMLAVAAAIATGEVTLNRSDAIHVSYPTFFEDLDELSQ

`C=C(OP(=O)(O)O)C(=O)O` [PEP]: in data set [1] (S3P maintained at 1 mM, PEP 0.05-1.0 mM, Eadie-Hofstee), the Michaelis-Menten constant (Km) was 79.2 ± 32 µM.

For `O=C(O)CNCP(=O)(O)O` [glyphosate], the “glyphosate resistance (highest glyphosate concentration allowing growth)” value in data set [2] is listed as 200 mM; in data set [4] it was 250 mM. In data set [3], the “growth of transgenic plants in medium with 20 mM glyphosate” value was “could grow well”. For the same molecule, the Ki/Km in data set [1] (Ki (glyphosate) / Km (PEP)) amounted to 2.16.

B1: GR-79 EPSP: new type I EPSP synthase with high glyphosate resistance, 445 amino acids, SEQ ID NO:1 (protein)
chain: MSHSTSRSPWSKATEYHEALVTPTSNKINGEIFVPGSKSYTNRALIIAALAEGTSTLKGILKSDDSYWCIDALRRLGIKIEVAEETVTIHGCGGKWPVQSAELFIGAAGTIARFLPGALAVAQQGEWIVDGVPQLRERPLKPLVDALTQLGGRIEYLTEHPGLPLRVKGAGLSGQHVRVPGNVSSQFLSGLLIASPYASEAVSIEVINGLVQPSYIAITIQLMREFGAKVEHNEDYSLFKVYPTGYQGRDTILEADASTACYFLSLAALTGGTIQVKNVGYHSYQPDARFIDVLEQMGCEVIKNESFLEVTGPTRLKGGFEVDMKPMSDQALTIGALAPFADAPIRVTNVAHIRAHESDRIAVICSSLQQMGVQVEEREDGFTIYPGQPVGTTLNPHDDHRNAMVFGLLGVKVPHIRIVDPGCVSKTCPAYFEELQKFGIHVEYN
modifications: From a mixture of organisms
As to B1, the enzyme activity with GR-79 EPSP is reported as 10.477 U/mg.
